Data published in patent US8110681B2, “Compounds for the treatment of spinal muscular atrophy and other uses” (The United States of America as represented by the …, priority 2006, dated 2012).
Where two headings read alike, the source gives them in different places.

Tested on: SMN2-linked luciferase-reporter gene construct
Assay: SMN splice reporter assay (SMN2-linked luciferase reporter, Example 10)
Assay type: cell-based
From the text: Cervical carcinoma cell lines were transformed with a SMN2-linked luciferase-reporter gene construct. The reporter is designed to detect shifts in the alternative splicing of SMN2 sequences. In particular, the reporter is constructed as a fusion of the alternatively spliced sequences of the SMN2 gene and the luciferase gene. Luciferase sequences are in the correct translational reading frame only when the SMN2 sequences are spliced according to the normal SMN1 mechanism (e.g., splicing to include exon 7), which allows for translation of the stable SMN protein. Compounds were tested in the assay by administering the compound to the cell line and detecting an increase in the luciferase activity. The assay is described in greater detail in Zhang et al., Gene Ther., 8, 1532-8 (2001). Compounds were administered as described in Lunn et al, Chem. & Biol, 11, 1489-1493 (2004).
The results are reported as a fold-increase over a baseline reading of transformed cells without any test compound.

[1] = maximum fold increase of reporter signal, average, read-out: SMN Splice Reporter Assay (Example 10) Avg MaxFold Increase
[2] = SMN2-linked luciferase reporter, average

Row | EC50 [2] | Compound | maximal fold induction [1] | maximal fold induction (read-out: SMN Splice Reporter Assay (Example 10) Avg MaxFold Increase, maximum fold increase of reporter signal, average, heading: SMN Splice Reporter Assay Avg MaxFold Increase) | maximal fold induction (SMN2-linked luciferase reporter, average maximum fold increase, read-out: SMN Splice Reporter Assay (Example 10) Avg MaxFold Increase)
1 | – | CC(C(=O)O)c1ccc(N2Cc3ccc(NC(=O)c4ccccc4)cc3C2=O)cc1 (centres unmarked) [ALB-111986] | 1.06 | – | –
2 | – | CC(C)C(=O)Nc1ccc2c(c1)C(=O)N(c1ccc(C(C)C(=O)OC(C)(C)C)cc1)C2 (centres unmarked) [ALB-111989] | 1.06 | – | –
3 | – | CC(C(=O)OC(C)(C)C)c1ccc(N2Cc3cc(-c4cncnc4)ccc3C2=O)cc1 (centres unmarked) [ALB-111991] | 1.09 | – | –
4 | – | CC(C(=O)OC(C)(C)C)c1ccc(N2Cc3cc(-c4cccs4)ccc3C2=O)cc1 (centres unmarked) [ALB-111992] | 1.01 | – | –
5 | 2950 nM | CC(C(=O)O)c1ccc(N2Cc3cc(-c4ccccc4)ccc3C2=O)cc1 (centres unmarked) [ALB-111993] | 1.54 | – | –
6 | 4180 nM | CC(C(=O)O)c1ccc(N2Cc3cc(-c4cncnc4)ccc3C2=O)cc1 (centres unmarked) [ALB-111994] | 1.38 | – | –
7 | 12000 nM | CC(C(=O)O)c1ccc(N2Cc3cccc([N+](=O)[O-])c3C2=O)cc1 (centres unmarked) [ALB-111995] | 1.25 | – | –
8 | – | CC(C(=O)O)c1ccc(N2Cc3c(N)cccc3C2=O)cc1 (centres unmarked) [ALB-111996a] | 1.11 | – | –
9 | 175 nM | CC(C(=O)OC(C)(C)C)c1ccc(N2Cc3ccc(NS(C)(=O)=O)cc3C2=O)cc1 (centres unmarked) [ALB-111997] | – | 1.01 | –
10 | – | CC(C(=O)OC(C)(C)C)c1ccc(N2Cc3ccccc3C2=O)c(Br)c1 (centres unmarked) [ALB-111998] | 1.04 | – | –
11 | – | CC(C(=O)O)c1ccc(N2Cc3ccccc3C2=O)cc1-c1ccc(Cl)c(Cl)c1 (centres unmarked) [ALB-111999] | 1.05 | – | –
12 | – | Cc1ccc(-c2cc(N3Cc4ccccc4C3=O)ccc2C(C)C(=O)OC(C)(C)C)cc1 (centres unmarked) [ALB-112000] | 1.06 | – | –
13 | – | COc1ccc(-c2cc(N3Cc4ccccc4C3=O)ccc2C(C)C(=O)OC(C)(C)C)cc1 (centres unmarked) [ALB-112001] | 1.02 | – | –
14 | – | COc1ccc(-c2cc(N3Cc4ccccc4C3=O)ccc2C(C)C(=O)O)cc1 (centres unmarked) [ALB-112002] | 1.08 | – | –
15 | 2060 nM | Cc1ccc(-c2cc(N3Cc4ccccc4C3=O)ccc2C(C)C(=O)O)cc1 (centres unmarked) [ALB-112003] | 1.09 | – | –
16 | 1250 nM | CC(C(=O)O)c1ccc(N2Cc3ccccc3C2=O)c(Br)c1 (centres unmarked) [ALB-112004] | 1.08 | – | –
17 | 3740 nM | CC(C(=O)OC(C)(C)C)c1ccc(N2Cc3cccc(N)c3C2=O)cc1 (centres unmarked) [ALB-112061] | 1.27 | – | –
18 | 329 nM | CC(C(=O)O)c1ccc(N2Cc3cccc(N)c3C2=O)cc1 (centres unmarked) [ALB-112062a] | 1.41 | – | –
19 | 909 nM | CC(C(=O)O)c1ccc(N2Cc3cc(-c4cccs4)ccc3C2=O)cc1 (centres unmarked) [ALB-112063] | 1.2 | – | –
20 | – | CC(C(=O)OC(C)(C)C)c1ccc(N2Cc3c(Br)cccc3C2=O)cc1 (centres unmarked) [ALB-112064] | 1.04 | – | –
21 | 1340 nM | CC(C(=O)OC(C)(C)C)c1ccc(N2Cc3cccc(Br)c3C2=O)cc1 (centres unmarked) [ALB-112065] | 1.22 | – | –
22 | 21800 nM | CC(C(=O)O)c1ccc(N2Cc3c(Br)cccc3C2=O)cc1 (centres unmarked) [ALB-112066] | 1.12 | – | –
23 | 9710 nM | CC(C(=O)O)c1ccc(N2Cc3cccc(Br)c3C2=O)cc1 (centres unmarked) [ALB-112067] | 1.36 | – | –
24 | – | CC(C(=O)OC(C)(C)C)c1ccc(N2Cc3ccc(NS(=O)(=O)c4ccc(Cl)cc4)cc3C2=O)cc1 (centres unmarked) [ALB-112070] | 1.11 | – | –
25 | – | CC(C(=O)O)c1ccc(N2Cc3ccc(NS(C)(=O)=O)cc3C2=O)cc1 (centres unmarked) [ALB-112071] | 1.07 | – | –
26 | – | CC(C(=O)OC(C)(C)C)c1ccc(N2Cc3ccc(NS(=O)(=O)c4ccccc4)cc3C2=O)cc1 (centres unmarked) [ALB-112072] | – | – | 1.07
27 | – | CCNC(=O)C(C)c1ccc(N2Cc3ccccc3C2=O)cc1 (centres unmarked) [ALB-112073] | 1.18 | – | –
28 | 578 nM | CC(C(=O)Nc1ccccc1)c1ccc(N2Cc3ccccc3C2=O)cc1 (centres unmarked) [ALB-112075] | 1.25 | – | –
29 | 1370 nM | CC(C)NC(=O)C(C)c1ccc(N2Cc3ccccc3C2=O)cc1 (centres unmarked) [ALB-112076] | 1.12 | – | –
30 | – | CC(C(=O)N1CCOCC1)c1ccc(N2Cc3ccccc3C2=O)cc1 (centres unmarked) [ALB-112077] | 1.09 | – | –
